Measured values as given in BindingDB's records for PubMed 31759729 (University of Electronic Science and Technology of China, 2020).

Molecular target: cGMP-specific 3',5'-cyclic phosphodiesterase (Homo sapiens, UniProt O76074)
Assay: Inhibition of PDE-5A (unknown origin)

Row | SMILES | IC50
1 | CC(C)=CCC1=C(O)c2c(occ(-c3ccc(O[N+](=O)[O-])cc3)c2=O)C2C=CC(C)(C)OC12 (configuration not stated) | 0.5 µM
2 | CC(C)=CCc1c(O)c2c(c3c1OC(C)(C)C=C3)CC=C(c1ccc3c(c1)OCCO3)C2=O | 2.7 µM
